Consider 14 molecules from US20250368616A1, “NITROGEN-CONTAINING HETEROCYCLIC DERIVATIVE INHIBITOR, AND PREPARATION METHOD THEREFOR AND USE THEREOF” (SHANGHAI HANSOH BIOMEDICAL CO., LTD., priority 2021, published 2025).

Assay [1] deals with Ba/F3 EGFR Del19/C797S cells. Put plainly: Cell proliferation inhibition assay (Cell Titer-Glo), Ba/F3 EGFR Del19/C797S. Particulars: 72 hours, read-out: Ba/F3 EGFR Del19_C797S IC50. The assay is classed as cell-based. An excerpt: (§1) Test Example 2: Cell Proliferation Inhibition Assay
(§2) Experimental objective: The objective of this test example is to test the inhibitory activity of compounds on the proliferation of different EGFR C797S drug-resistant mutant cell lines Ba/F3 EGFR Del19/T790M/C797S, Ba/F3 EGFR L858R/T790M/C797S, and Ba/F3 EGFR Del19/C797S.
(§3) • Ba/F3 EGFR Del19/T790M/C797S cells were purchased from KYinno Biotechnology Co., Ltd.; • Ba/F3 EGFR Del19/C797S cells were purchased from CoBioer Biosciences Co., Ltd.; • Ba/F3 EGFR L858R/T790M/C797S cells were purchased from CoBioer Biosciences Co., Ltd.; • Cell Titer-Glo was purchased from Promega, with a catalog number of G7573; • RPMI 1640 was purchased from Gibco, with a catalog number of 22400089; • FBS was purchased from Gibco, with a catalog number of 10091148; • cell culture plates were purchased from Corning, with a catalog number of 3610.
(§4) The inhibitory activity of the compound on the proliferation of different EGFR C797S drug-resistant mutant cell lines was detected using the Cell Titer-Glo method. The different cell lines were cultured in RPMI 1640 complete culture medium containing 10% FBS under conditions of 37° C. and 5% CO2, the cells were collected by centrifugation when growing to a certain density, and adjusted to appropriate cell density after counting, the cells were spread on a white 96-well plate at 90 μL/well, and cultured in a 37° C., 5% CO2 incubator overnight, prepared compound solutions of different concentrations were added at 10 μL/well, corresponding solvent controls were set, and all wells were cultured in a 37° C., 5% CO2 incubator for 72 hours, 50 μL of CellTiter-Glo solution was added to each well, shook and mixed evenly, and incubated in the dark for 10 minutes, and a BioTek Synergy H1 microplate reader was used for reading.
(§5) The luminescence signal value was used to calculate the inhibition rate. Graphpad Prism software was used to fit the concentration and inhibition rate to a nonlinear regression curve, so as to obtain the IC50 value, as shown in Tables 3 and 4 below for details.
For orientation: ATP-based viability assays read luminescence as a measure of living cells.

The test system of assay [2] is Ba/F3 EGFR Del19/T790M/C797S cells. Put plainly: Cell proliferation inhibition assay (Cell Titer-Glo), Ba/F3 EGFR Del19/T790M/C797S. The assay is classed as cell-based. Conditions: 72 hours, read-out: Ba/F3 EGFR Del19_T790M_C797S IC50.
Text: as §1, §2, §3, §4, §5

Assay [3] deals with EGFR del19/T790M/C797S mutant kinase (Homo sapiens, UniProt P00533, C797S/DEL746-750/T790M). Put plainly: HTRF kinase assay, EGFR del19/T790M/C797S mutant kinase. Conditions: 120 minutes at room temperature. In kind it is biochemical. An excerpt:
(§6) Test Example 1. Determination of the Inhibitory Effect of the Compounds of the Present Invention on the Activity of EGFR del19/T790M/C797S and EGFR L858R/T790M/C797S Mutant Kinases
(§7) Experimental objective: The objective of this test example is to test the inhibitory activity of the compounds on the activity of EGFR del19/T790M/C797S and EGFR L858R/T790M/C797S mutant kinases.
(§8) Experimental method: This experiment used Cisbio's HTRF kinase assay method (Cisbio #62TK0PEB), wherein a catalytic reaction occurred between the substrate polypeptide TK and ATP in the presence of the tyrosine kinase with EGFR del19/T790M/C797S or EGFR L858R/T790M/C797S mutation, the substance was phosphorylated, and the activity of the kinase was characterized by measuring the content of the phosphorylated substrate generated during the reaction, and the half inhibitory concentration IC50 of the compound on the activity of EGFR del19/T790M/C797S or EGFR L858R/T790M/C797S mutant kinase was obtained.
(§9) Specific Experimental Operations were as Follows: • the kinase reaction was carried out in a white 384-well plate (Perkin Elmer #6008280), and 1-5 μL of compounds of different concentrations which were diluted with 1% DMSO-containing ddH2O were added; to the positive control wells were added 1-5 μL of 1% DMSO-containing ddH2O, followed by 1-5 μL of 0.5-5 nM 4×EGFR del19/T790M/C797S or EGFR L858R/T790M/C797S mutant kinase solution which was diluted with Dilution buffer (5× kinase buffer, MgCl2 6.65 Mm, MnCl2 1.33 mM, DTT 1.33 mM); to the negative control wells were added 1-5 μL of Dilution buffer; to all the wells were added 1-5 μL of 4 μM 4× substrate TK solution which was prepared with 10× Dilution buffer, and finally added 1-5 μL of 24 μM 4×ATP solution which was diluted with Dilution buffer to start the reaction; after reacting at room temperature for 120 minutes, 10 μL of detection solution (TK antibody 16 nM, XL665 0.5 μM) was added to each well, same was reacted at room temperature in the dark for 20 minutes, and then the […] was detected using a BioTek Synergy H1 microplate reader.
(§10) The percent inhibition data for compound-treated wells was calculated according to the positive control wells (DMSO control wells) and negative control wells (no kinase added) on the plate {% inhibition rate=100−[(test compound value−negative control value)]/(positive control value−negative control value)×100}. GraphPad prism was used to fit different concentrations and corresponding percent inhibition rate data to a 4-parameter nonlinear logistic equation to calculate IC50 values.

In assay [4] the target is EGFR L858R/T790M/C797S mutant kinase (Homo sapiens (Human), UniProt P00533, C797S/L858R/T790M). Put plainly: HTRF kinase assay, EGFR L858R/T790M/C797S mutant kinase. In kind it is biochemical. Particulars: 120 minutes at room temperature.
Sequence of EGFR L858R/T790M/C797S mutant kinase (P00533 25-1210 T790M/C797S/L858R): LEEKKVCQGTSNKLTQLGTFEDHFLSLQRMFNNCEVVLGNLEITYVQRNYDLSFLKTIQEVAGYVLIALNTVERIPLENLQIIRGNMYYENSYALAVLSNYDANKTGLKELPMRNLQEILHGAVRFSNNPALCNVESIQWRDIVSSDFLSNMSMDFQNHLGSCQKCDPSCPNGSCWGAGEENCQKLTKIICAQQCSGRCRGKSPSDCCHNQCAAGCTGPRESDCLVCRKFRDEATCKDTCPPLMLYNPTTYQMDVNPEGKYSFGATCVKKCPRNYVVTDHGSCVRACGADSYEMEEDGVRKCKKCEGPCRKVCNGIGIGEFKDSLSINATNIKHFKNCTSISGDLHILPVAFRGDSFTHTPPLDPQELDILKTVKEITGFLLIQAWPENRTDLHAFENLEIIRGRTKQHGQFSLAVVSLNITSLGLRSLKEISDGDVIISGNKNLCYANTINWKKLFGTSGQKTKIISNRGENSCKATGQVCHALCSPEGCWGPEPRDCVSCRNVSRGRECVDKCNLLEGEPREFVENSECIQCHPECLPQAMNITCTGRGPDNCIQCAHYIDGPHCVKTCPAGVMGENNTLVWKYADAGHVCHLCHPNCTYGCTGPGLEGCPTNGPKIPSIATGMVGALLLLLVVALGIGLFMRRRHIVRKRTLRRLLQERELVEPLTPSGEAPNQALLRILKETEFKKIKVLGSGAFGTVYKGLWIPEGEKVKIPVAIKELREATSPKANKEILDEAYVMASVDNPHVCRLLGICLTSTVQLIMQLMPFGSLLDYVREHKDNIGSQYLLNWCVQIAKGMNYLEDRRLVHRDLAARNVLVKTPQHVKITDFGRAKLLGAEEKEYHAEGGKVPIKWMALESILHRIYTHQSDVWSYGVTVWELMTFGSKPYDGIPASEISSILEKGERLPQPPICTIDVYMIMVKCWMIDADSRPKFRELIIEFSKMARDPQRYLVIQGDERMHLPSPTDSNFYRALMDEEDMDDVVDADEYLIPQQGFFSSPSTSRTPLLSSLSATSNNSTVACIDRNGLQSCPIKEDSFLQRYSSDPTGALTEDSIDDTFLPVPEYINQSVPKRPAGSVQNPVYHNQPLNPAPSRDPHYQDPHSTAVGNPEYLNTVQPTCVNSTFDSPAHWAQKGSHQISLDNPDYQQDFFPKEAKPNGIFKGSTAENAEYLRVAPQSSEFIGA
Text: as §6, §7, §8, §9, §10
For orientation: Time-resolved FRET reads energy transfer from a long-lived donor to a nearby acceptor.

Sequence of EGFR del19/T790M/C797S mutant kinase (P00533 with tags, fused parts or gaps C797S/DEL746-750/T790M limits assumed): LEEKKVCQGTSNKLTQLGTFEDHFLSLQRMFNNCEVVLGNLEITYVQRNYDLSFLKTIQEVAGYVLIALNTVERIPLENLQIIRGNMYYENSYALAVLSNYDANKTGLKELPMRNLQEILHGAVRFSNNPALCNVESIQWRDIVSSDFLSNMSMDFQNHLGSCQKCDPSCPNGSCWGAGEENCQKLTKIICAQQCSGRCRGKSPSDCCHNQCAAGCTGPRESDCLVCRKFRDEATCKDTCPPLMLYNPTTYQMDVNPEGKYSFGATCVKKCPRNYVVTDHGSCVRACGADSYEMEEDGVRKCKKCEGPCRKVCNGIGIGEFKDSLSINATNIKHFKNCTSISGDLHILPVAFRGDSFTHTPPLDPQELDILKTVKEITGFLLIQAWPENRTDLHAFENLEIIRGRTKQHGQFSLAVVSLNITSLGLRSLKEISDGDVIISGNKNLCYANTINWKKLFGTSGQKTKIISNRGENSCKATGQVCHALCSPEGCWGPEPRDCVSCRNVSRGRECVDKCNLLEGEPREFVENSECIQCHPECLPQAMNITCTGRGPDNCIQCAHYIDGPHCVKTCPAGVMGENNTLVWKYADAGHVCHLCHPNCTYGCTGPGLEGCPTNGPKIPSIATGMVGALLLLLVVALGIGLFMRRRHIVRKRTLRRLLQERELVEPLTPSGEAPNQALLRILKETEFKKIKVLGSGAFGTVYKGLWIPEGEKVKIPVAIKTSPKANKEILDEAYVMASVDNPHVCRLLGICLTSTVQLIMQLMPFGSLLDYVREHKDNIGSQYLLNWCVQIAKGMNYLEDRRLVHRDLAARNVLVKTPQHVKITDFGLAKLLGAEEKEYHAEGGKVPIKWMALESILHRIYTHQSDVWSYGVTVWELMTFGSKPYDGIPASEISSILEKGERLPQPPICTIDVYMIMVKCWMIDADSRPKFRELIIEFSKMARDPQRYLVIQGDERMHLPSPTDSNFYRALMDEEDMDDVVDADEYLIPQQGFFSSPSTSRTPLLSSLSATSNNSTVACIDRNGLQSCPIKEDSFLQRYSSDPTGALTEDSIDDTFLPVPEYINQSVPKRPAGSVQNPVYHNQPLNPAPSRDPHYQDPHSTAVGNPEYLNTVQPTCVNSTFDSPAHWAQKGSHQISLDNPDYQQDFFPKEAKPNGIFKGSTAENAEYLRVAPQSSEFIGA

With `Cc1nn(C)cc1-c1nccc(Nc2cc3c(C(C)C)ccc(N4C[C@H](CS(=O)(=O)N(C)C)[C@H]4C)c3cn2)n1` [Example 61, 1-((2R,3S)-1-(3-((2-(1,3-dimethyl-1H-pyrazol-4-yl)pyrimidin-4-yl)amino)-5-isopropylisoquinolin-8-yl)-2-methylazetidin-3-yl)-N,N-dimethyl methanesulfonamide], the IC50 in assay [1] was determined as 24 nM; in assay [2], 9.1 nM.
As to `CC(C)c1ccc(N2C[C@H](CS(C)(=O)=O)[C@H]2C)c2cnc(Nc3ccnc(-c4cnn(CC5(C#N)CC5)c4)n3)cc12` [Example 19, 1-((4-(4-((5-isopropyl-8-((2R,3S)-2-methyl-3-((methanesulfonyl)methyl)azetidin-1-yl)isoquinolin-3-yl)amino)pyrimidin-2-yl)-1H-pyrazol-1-yl)methyl)cyclopropane-1-carbonitrile], the IC50 in assay [3] was 2.5 nM; in assay [4] it was 1 nM.
`CC(C)c1ccc(N2C[C@H](CS(C)(=O)=O)[C@H]2C)c2cnc(Nc3ccnc(-c4cn(CCO)nc4Cl)n3)cc12` [Example 11, 2-(3-chloro-4-(4-((5-isopropyl-8-((2R,3S)-2-methyl-3-((methanesulfonyl)methyl)azabut-1-yl)isoquinolin-3-yl)amino)pyrimidin-2-yl)-1H-pyrazol-1-yl)ethanol]: the IC50 in assay [1] was 24 nM; in assay [2], 7.2 nM.
For the molecule `CC(C)c1ccc(N2C[C@H](CS(C)(=O)=O)[C@H]2C)c2cnc(Nc3ccnc(-c4cnn(C5COC5)c4)n3)cc12` [Example 20, 5-isopropyl-8-((2R,3S)-2-methyl-3-((methanesulfonyl)methyl)azetidin-1-yl)-N-(2-(1-(oxetan-3-yl)-1H-pyrazol-4-yl)pyrimidin-4-yl)isoquinolin-3-amine], the IC50 amounted to 6.2 nM in assay [3] and 0.92 nM in assay [4].
Consider `CC(O)Cn1cc(-c2nccc(Nc3cc4c(C(C)C)ccc(N5C[C@H](CS(C)(=O)=O)[C@H]5C)c4cn3)n2)c(Cl)n1` (stereo partly drawn) [Example 80, 1-(3-chloro-4-(4-((5-isopropyl-8-((2R,3S)-2-methyl-3-((methanesulfonyl)methyl)azetidin-1-yl)isoquinolin-3-yl)amino)pyrimidin-2-yl)-1H-pyrazol-1-yl)propan-2-ol], for which the figures for the IC50 in assay [1] and in assay [2] were 17 nM and 10 nM, respectively.
Consider `COCC1(Cn2cc(-c3nccc(Nc4cc5c(C(C)C)ccc(N6C[C@H](CS(C)(=O)=O)[C@H]6C)c5cn4)n3)cn2)CC1` [Example 66, 5-isopropyl-N-(2-(1-((1-(methoxymethyl)cyclopropyl)methyl)-1H-pyrazol-4-yl)pyrimidin-4-yl)-8-((2R,3S)-2-methyl-3-((methanesulfonyl)methyl)azetidin-1-yl)isoquinolin-3-amine], for which the IC50 in assay [1] was determined as 78 nM; in assay [4] it was 0.17 nM.
Consider `CC(C)c1ccc(N2C[C@H](CS(C)(=O)=O)[C@H]2C)c2cnc(Nc3ccnc(-c4cn[nH]c4)n3)cc12` [Example 17, N-(2-(1H-pyrazol-4-yl)pyrimidin-4-yl)-5-isopropyl-8-((2R,3S)-2-methyl-3-((methanesulfonyl)methyl)azetidin-1-yl)isoquinolin-3-amine], for which the IC50 in assay [3] was found to be 3 nM; in assay [4], 0.71 nM.
Take `CC(C)c1ccc(N2CC(N(C)S(C)(=O)=O)C2)c2cnc(Nc3ccnc(-c4cn(CCO)nc4Cl)n3)cc12` [Example 79, N-(1-(3-((2-(3-chloro-1-(2-hydroxyethyl)-1H-pyrazol-4-yl)pyrimidin-4-yl)amino)-5-isopropylisoquinolin-8-yl)azetidin-3-yl)-N-methyl Methanesulfonamide]: the IC50 in assay [1] is 11 nM; in assay [2], 7.7 nM.
Turning to `CC(C)c1ccc(N2C[C@H](N3CCOC3=O)[C@H]2C)c2cnc(Nc3ccnc(-c4cn(C)nc4Cl)n3)cc12` [Example 74, 3-((2R,3S)-1-(3-((2-(3-chloro-1-methyl-1H-pyrazol-4-yl)pyrimidin-4-yl)amino)-5-isopropylisoquinolin-8-yl)-2-methylazetidin-3-yl)oxazolidin-2-one], the IC50 in assay [1] and in assay [2] was 14 nM in each case.
For `CC(C)c1cnc(N2CC(CS(C)(=O)=O)C2)c2cnc(Nc3ccnc(-c4cnn(S(=O)(=O)C5CC5)c4)n3)cc12` [Example 3, N-(2-(1-(cyclopropylsulfonyl)-1H-pyrazol-4-yl)pyrimidin-4-yl)-5-isopropyl-8-(3-((methanesulfonyl)methyl)azetidin-1-yl)-2,7-diazanaphthalen-3-amine], the IC50 in assay [1] came to 10 nM; in assay [2], 5.5 nM; in assay [3] it was 9.4 nM.
As for `COCCn1cc(-c2nccc(Nc3cc4c(C(C)C)ccc(N5C[C@H](CS(C)(=O)=O)[C@H]5C)c4cn3)n2)c(Cl)n1` [Example 73, N-(2-(3-chloro-1-(2-methoxyethyl)-1H-pyrazol-4-yl)pyrimidin-4-yl)-5-isopropyl-8-((2R,3S)-2-methyl-3-((methanesulfonyl)methyl)azetidin-1-yl)isoquinolin-3-amine], the IC50 was 8.5 nM in assay [1] and 11 nM in assay [2].
Turning to `CC(C)c1ccc(N2C[C@H](CS(C)(=O)=O)[C@H]2C)c2cnc(Nc3ccnc(-c4cnn(C(F)F)c4)n3)cc12` [Example 25, N-(2-(1-(difluoromethyl)-1H-pyrazol-4-yl)pyrimidin-4-yl)-5-isopropyl-8-((2R,3S)-2-methyl-3-((methanesulfonyl)methyl)azetidin-1-yl)isoquinolin-3-amine], the IC50 worked out at 54 nM in assay [1] and 14 nM in assay [2].
As for `CC(C)c1ccc(N2C[C@H](CS(C)(=O)=O)[C@H]2C)c2cnc(Nc3ccnc(-c4cnn(CC(F)(F)F)c4)n3)cc12` [Example 26, 5-isopropyl-8-((2R,3S)-2-methyl-3-((methanesulfonyl)methyl)azetidin-1-yl)-N-(2-(1-(2,2,2-trifluoroethyl)-1H-pyrazol-4-yl)pyrimidin-4-yl)isoquinolin-3-amine], the figures for the IC50 in assay [1] and in assay [4] were 78 nM and 1 nM, respectively.
For the molecule `CC(C)c1ccc(N2C[C@H](CS(C)(=O)=O)[C@H]2C)c2cnc(Nc3ccnc(-c4cn(C5CC5)nc4Cl)n3)cc12` [Example 70, N-(2-(3-chloro-1-cyclopropyl-1H-pyrazol-4-yl)pyrimidin-4-yl)-5-isopropyl-8-((2R,3S)-2-methyl-3-((methanesulfonyl)methyl)azetidin-1-yl)isoquinolin-3-amine], the IC50 in assay [1] is 10 nM; in assay [2], 11 nM.
